One assay concerns the target T1, Recombinant human ASK1 kinase (Homo sapiens, UniProt Q99683).
T1 construct: purchased Invitrogen Inc
T1 sequence (Q99683 1-1374): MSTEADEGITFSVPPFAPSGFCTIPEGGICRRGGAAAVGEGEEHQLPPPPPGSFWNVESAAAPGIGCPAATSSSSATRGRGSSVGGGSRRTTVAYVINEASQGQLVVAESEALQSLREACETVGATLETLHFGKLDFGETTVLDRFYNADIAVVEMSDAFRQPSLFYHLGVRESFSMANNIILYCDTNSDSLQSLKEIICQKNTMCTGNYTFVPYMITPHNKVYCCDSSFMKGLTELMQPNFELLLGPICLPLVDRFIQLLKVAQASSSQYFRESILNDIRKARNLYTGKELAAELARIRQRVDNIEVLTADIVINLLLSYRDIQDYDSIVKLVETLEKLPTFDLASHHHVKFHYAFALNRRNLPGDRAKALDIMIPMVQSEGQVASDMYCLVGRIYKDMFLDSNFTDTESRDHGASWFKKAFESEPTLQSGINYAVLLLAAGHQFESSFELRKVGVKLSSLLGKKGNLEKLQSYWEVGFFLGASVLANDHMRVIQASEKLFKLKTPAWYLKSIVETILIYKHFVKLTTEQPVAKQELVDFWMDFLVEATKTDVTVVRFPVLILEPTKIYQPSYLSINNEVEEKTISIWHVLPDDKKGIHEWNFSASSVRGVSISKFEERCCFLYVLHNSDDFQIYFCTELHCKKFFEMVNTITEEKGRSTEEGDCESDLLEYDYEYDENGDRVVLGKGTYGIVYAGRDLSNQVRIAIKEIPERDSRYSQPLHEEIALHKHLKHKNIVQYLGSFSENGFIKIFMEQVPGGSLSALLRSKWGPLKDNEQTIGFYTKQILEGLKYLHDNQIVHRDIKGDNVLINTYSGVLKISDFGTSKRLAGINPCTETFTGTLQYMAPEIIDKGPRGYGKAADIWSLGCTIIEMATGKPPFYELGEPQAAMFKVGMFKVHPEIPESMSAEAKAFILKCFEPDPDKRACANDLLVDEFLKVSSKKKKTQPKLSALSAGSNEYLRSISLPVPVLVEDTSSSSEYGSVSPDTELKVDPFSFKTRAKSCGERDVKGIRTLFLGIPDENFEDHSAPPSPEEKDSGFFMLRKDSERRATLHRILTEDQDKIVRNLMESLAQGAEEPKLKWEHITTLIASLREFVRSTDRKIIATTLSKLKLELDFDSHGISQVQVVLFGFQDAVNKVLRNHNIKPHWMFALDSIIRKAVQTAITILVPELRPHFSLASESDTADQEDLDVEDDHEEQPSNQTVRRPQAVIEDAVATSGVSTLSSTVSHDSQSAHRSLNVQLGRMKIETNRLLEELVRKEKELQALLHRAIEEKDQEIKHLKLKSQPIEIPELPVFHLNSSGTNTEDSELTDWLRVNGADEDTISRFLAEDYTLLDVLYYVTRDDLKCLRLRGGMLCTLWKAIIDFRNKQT
Kind of assay: ASK1 kinase HTRF assay (HTRF KinEASE-STK, phosphorylation of biotinylated peptide substrate).
Settings: not given
The assay is classed as biochemical. On the procedure: Reagents: Recombinant human ASK1 kinase was from Invitrogen Inc. HTRF KinEASETM-STK S3 kit was obtained from Cisbio (Bedford, Mass.). All other reagents were of the highest grade commercially available.
Assay: The assay measures the phosphorylation level of a biotinylatd peptide substrate by the ASK1 kinase using HTRF detection. ASK1 kinase assay is based on HTRF KinEASETM-STK manual from Cisbio. Test compound, 1 uM STK-substrate-biotin, 3 nM of ASK1 kinase are incubated with 1*Kinase buffer with 5 mM MgCl2 and 1 mM DTT.
On the technique in general: In TR-FRET formats the signal depends on donor and acceptor labels being close together.
For `CC(C)n1cnnc1-c1cccc(NC(=O)Nc2ccc3ccccc3n2)n1` [Compound I-067], the half-maximal effective concentration (EC50) was under 50 nM. Still for that read-out and setting: under `CC(C)n1cnnc1-c1cccc(NC(=O)Nc2ccccc2)n1` [Compound I-016] stands 50 to 500 nM. For `C[C@H](CO)n1cnnc1-c1cccc(NC(=O)Nc2cc(C(=O)N3CCCCC3)ccn2)n1` [Compound I-110], the half-maximal effective concentration (EC50) is under 50 nM.

For the compound `CC(C)n1cnnc1-c1cccc(NC(=O)Nc2ccncc2)n1` [Compound I-033], the EC50 fell in the range of 50 to 500 nM. As to `CC(C)n1cnnc1-c1cccc(NC(=O)Nc2cc(C(=O)N3CCC(=O)CC3)ccn2)n1` [Compound I-134], the EC50 is under 50 nM.

As to `CC(C)n1cnnc1-c1cccc(NC(=O)Nc2nccc3ccccc23)n1` [Compound I-066], the EC50 was under 50 nM.

Staying with this assay, now noted: 3 nM ASK1 kinase, 1 uM STK-substrate-biotin, HTRF detection; read-out: EC50.
On to `CC(C)n1cnnc1-c1cccc(NC(=O)Nc2ncccc2O)n1` [Compound I-072], for which the EC50 was under 50 nM. As for `CC(C)n1cnnc1-c1cccc(NC(=O)Nc2cc(C(=O)N3CCCC[C@@H]3C)ccn2)n1` [Compound I-118], the EC50 is under 50 nM. As to `Cc1ccc(NC(=O)Nc2cccc(-c3nncn3C(C)C)n2)c(F)c1` [Compound I-018], the EC50 was in the range of 50 to 500 nM. Same read-out and setting: under `C[C@H](CO)n1cnnc1-c1cccc(NC(=O)Nc2nc3ccccc3o2)n1` [Compound I-217] stands under 50 nM; under `CC(C)n1cnnc1-c1cccc(NC(=O)Nc2cc(C(=O)Nc3ccccn3)ccn2)n1` [Compound I-161], under 50 nM. The same measure, in the same setting: under `CC(C)n1cnnc1-c1cccc(NC(=O)Nc2cc(C(=O)N3CCc4ccccc4C3)ccn2)n1` [Compound I-006, 1-(6-(4-Isopropyl-4H-1,2,4-triazol-3-yl)pyridin-2-yl)-3-(4-(1,2,3,4-tetrahydroisoquinoline-2-carbonyl)pyridin-2-yl)urea] stands under 50 nM; under `C[C@@H](CO)n1cnnc1-c1cccc(NC(=O)Nc2ccccn2)n1` [Compound I-027], 50 to 500 nM; under `CC(C)n1cnnc1-c1cccc(NC(=O)Nc2cc(C(=O)N3CCC(O)CC3)ccn2)n1` [Compound I-136], under 50 nM. Consider `C[C@H](CO)n1cnnc1-c1cccc(NC(=O)Nc2cc(C(=O)N3CCCCCC3)ccn2)n1` [Compound I-148], for which the EC50 is under 50 nM. For the compound `C[C@H](CO)n1cnnc1-c1cccc(N2CCN(c3cc4ccccc4cn3)C2=O)n1` [Compound V-04], the EC50 is under 50 nM. On the same count and under the same terms, the same measure for `CC(C)n1cnnc1-c1cccc(NC(=O)Nc2cc(-c3ccc(C4CC4)nc3)ccn2)n1` [Compound I-081]: under 50 nM. As to `CC(C)n1cnnc1-c1cccc(NC(=O)Nc2ccc(N3CCNCC3)cn2)n1` [Compound I-097], the half-maximal effective concentration (EC50) was under 50 nM. Same read-out and setting: under `C[C@H](CO)n1cnnc1-c1cccc(NC(=O)Nc2cc(C(=O)Nc3ccccc3)ccn2)n1` [Compound I-153] stands under 50 nM; under `CC(C)n1cnnc1-c1cccc(NC(=O)Nc2ncccc2F)n1` [Compound I-186], under 50 nM; under `C[C@H](CO)n1cnnc1-c1cccc(N2CCN(c3ccc(N4CCOCC4)cn3)C2=O)n1` [Compound V-18], under 50 nM. The same measure, in the same setting: under `CC(C)n1cnnc1-c1cccc(NC(=O)Nc2cccc(C#N)n2)n1` [Compound I-200] stands under 50 nM; under `CC(C)n1cnnc1-c1cccc(NC(=O)Nc2cccc(N3CCCC3)n2)n1` [Compound I-166], 50 to 500 nM; under `CC(C)n1cnnc1-c1cccc(NC(=O)Nc2ccc(C(N)=O)cn2)n1` [Compound I-009, 6-(3-(6-(4-Isopropyl-4H-1,2,4-triazol-3-yl)pyridin-2-yl)ureido)nicotinamide], under 50 nM. As for `C[C@H](CO)n1cnnc1-c1cccc(NC(=O)Nc2cc(C(=O)Nc3ccncc3)ccn2)n1` [Compound I-164], the EC50 was under 50 nM. `C[C@H](CO)n1cnnc1-c1cccc(NC(=O)Nc2cc(-c3ccccn3)ccn2)n1` [Compound I-085]: the concentration giving a half-maximal response (EC50) was under 50 nM. Still for that read-out and setting: under `CC(C)n1cnnc1-c1cccc(NC(=O)Nc2cc(C(=O)N3CC[C@@H]4CCCC[C@H]4C3)ccn2)n1` [Compound I-127] stands under 50 nM; under `CC(C)n1cnnc1-c1cccc(NC(=O)Nc2cc(F)ccn2)n1` [Compound I-187], under 50 nM; under `CCN1CCN(c2ccnc(NC(=O)Nc3cccc(-c4nncn4C(C)C)n3)c2)CC1` [Compound I-099], under 50 nM.

Take `CCC(C)n1cnnc1-c1cccc(NC(=O)Nc2ccccn2)n1` (stereo not drawn) [Compound I-028]: the EC50 was under 50 nM. Still for that read-out and setting: the same measure for `CC(C)n1cnnc1-c1cccc(NC(=O)Nc2cc(-c3ccc(C4CC4)cc3)ccn2)n1` [Compound I-080]: under 50 nM. Still for that read-out and setting: under `CC(C)n1cnnc1-c1cccc(NC(=O)Nc2ncccc2-c2ccccc2)n1` [Compound I-075] stands 50 to 500 nM. The same measure, in the same setting: under `CC(=O)OC[C@@H](C)n1cnnc1-c1cccc(NC(=O)Nc2cc(C(=O)N3CCCCC3)ccn2)n1` [Compound I-012, (2R)-2-[3-[6-([[4-(Piperidine-1-carbonyl)pyridin-2-yl]carbamoyl]amino)pyridin-2-yl]-4H-1,2,4-triazol-4-yl]propyl acetate] stands 50 to 500 nM; under `CC(C)n1cnnc1-c1cccc(NC(=O)Nc2nc3ccccc3o2)n1` [Compound I-216], under 50 nM; under `CC(C)n1cnnc1-c1cccc(NC(=O)Nc2cc(C(=O)Nc3ccncc3)ccn2)n1` [Compound I-163], under 50 nM. For `CC(C)n1cnnc1-c1cccc(NC(=O)Nc2ccc(-n3ccnc3)cn2)n1` [Compound I-168], the half-maximal effective concentration (EC50) lay in the range of 50 to 500 nM.

In the case of `CC(C)N1CCN(c2ccnc(NC(=O)Nc3cccc(-c4nncn4C(C)C)n3)c2)CC1` [Compound I-098], the concentration giving a half-maximal response (EC50) was under 50 nM. Still for that read-out and setting: under `CC(C)n1cnnc1-c1cccc(NC(=O)Nc2cc(C(=O)N3CCCCCC3)ccn2)n1` [Compound I-147] stands under 50 nM.

In the case of `Cc1ccnc(NC(=O)Nc2cccc(-c3nncn3C(C)C)n2)c1` [Compound I-038], the EC50 was under 50 nM. The same measure, in the same setting: under `CC(C)n1cnnc1-c1cccc(NC(=O)Nc2cc(N3CCCCC3)ccn2)n1` [Compound I-105] stands under 50 nM. Consider `CC(C)n1cnnc1-c1cccc(NC(=O)Nc2cc(C(=O)N3CCCC4CCCCC43)ccn2)n1` (stereo not drawn) [Compound I-125], for which the concentration for a half-maximal effect (EC50) was under 50 nM. The same measure, in the same setting: under `Cc1ccc(-n2ccn(-c3cccc(-c4nncn4C(C)C)n3)c2=O)c(F)c1` [III-01, 3-(2-Fluoro-4-methylphenyl)-1-(6-(4-isopropyl-4H-1,2,4-triazol-3-yl)pyridin-2-yl)-1H-imidazol-2(3H)-one] stands 50 to 500 nM; under `CC(C)n1cnnc1-c1cccc(NC(=O)Nc2ccc(I)cn2)n1` [Compound I-174], under 50 nM; under `CC(C)n1cnnc1-c1cccc(NC(=O)Nc2cccc(Cl)n2)n1` [Compound I-185], under 50 nM. On to `CC(C)n1cnnc1-c1cccc(NC(=O)Nc2ccc(C(F)(F)F)cn2)n1` [Compound I-195], for which the EC50 is under 50 nM. As for `C[C@H](CO)n1cnnc1-c1cccc(NC(=O)Nc2cc(C(=O)N3CCCC[C@@H]3C)ccn2)n1` [Compound I-119], the EC50 is under 50 nM.

Take `CC(C)n1cnnc1-c1cccc(N2CCN(c3ccc(N4CCOC[C@@H]4C)cn3)C2=O)n1` [Compound V-14]: the EC50 was under 50 nM. Take `CC(CN)n1cnnc1-c1cccc(NC(=O)Nc2ccccn2)n1` (stereo not drawn) [Compound I-030]: the EC50 is 50 to 500 nM. Same read-out and setting: under `CC(C)c1ccc(NC(=O)Nc2cccc(-c3nncn3C(C)C)n2)nc1` [Compound I-044] stands under 50 nM; under `C[C@@H](CO)n1cnnc1-c1cccc(NC(=O)Nc2cc3ccccc3cn2)n1` [Compound I-059], under 50 nM. As to `O=C(Nc1cccc(-c2nncn2C2CC2)n1)Nc1ccc2ccccc2n1` [Compound I-068], the concentration giving a half-maximal response (EC50) is under 50 nM.

In general, EC50 refers to the midpoint of the concentration-response curve.

Source of the values: US11427556B2, “Urea derivatives as inhibitors of ASK1” (Hepagene Therapeutics (HK) Limited, priority 2017, dated 2022).
